pIC50: −log10 of the molar value.
Molecular target: T1, C-X-C chemokine receptor type 5 (Homo sapiens, UniProt P32302)
T1 sequence (P32302 whole entry): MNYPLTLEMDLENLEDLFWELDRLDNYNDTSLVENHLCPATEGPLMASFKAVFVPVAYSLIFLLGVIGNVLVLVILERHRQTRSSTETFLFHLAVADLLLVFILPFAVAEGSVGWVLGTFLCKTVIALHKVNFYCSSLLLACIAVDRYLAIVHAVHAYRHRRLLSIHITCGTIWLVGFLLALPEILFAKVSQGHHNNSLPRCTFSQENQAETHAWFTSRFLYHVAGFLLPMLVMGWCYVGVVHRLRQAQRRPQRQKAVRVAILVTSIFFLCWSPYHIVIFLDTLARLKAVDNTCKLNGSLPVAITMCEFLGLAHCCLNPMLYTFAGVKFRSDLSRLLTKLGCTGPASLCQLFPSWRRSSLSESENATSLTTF
Experiment: Antagonist activity against human CXCR5 expressed in RBL cells assessed as inhibition of human CXCL13-induced intracellular Ca2+ level by fluo-4/AM dye based FLIPR assay
Type: functional, cell-based

SMILES | pIC50
CCOc1ccc2ccccc2c1C(=O)NC1(C(=O)O)Cc2ccccc2C1 | 4.71
Cc1cccc(C(=O)NC2(C(=O)O)Cc3ccc(C(N)=O)cc3C2)c1OC1CCC1 (stereo unspecified) | < 4.52
Cc1cccc(C(=O)NC2(C(=O)O)Cc3ccc(C(F)(F)F)cc3C2)c1OC1CCC1 (stereo unspecified) | 5.11
Cc1cccc(C(=O)NC2(C(=O)O)Cc3ccc(C(F)(F)F)cc3C2)c1OC(C)C (stereo unspecified) | 4.83
C/C=C/c1c(C)cccc1C(=O)NC1(C(=O)O)Cc2ccc(F)cc2C1 (stereo unspecified) | 6.70
O=C(O)c1ccc2c(c1)CC(NC(=O)c1cccc3c1CCCC3)(C(=O)O)C2 (stereo unspecified) | < 4.52
Cc1cc2c(cc1C)CC(NC(=O)c1cccc(C)c1OC(C)C)(C(=O)O)C2 | 4.57
O=C(NC1(C(=O)O)Cc2ccccc2C1)c1cccc2ccccc12 | 5.26
CCCC#Cc1c(C)cccc1C(=O)NC1(C(=O)O)Cc2ccccc2C1 | 4.71
O=C(NC1(C(=O)O)Cc2ccc(F)cc2C1)c1cc(Cl)cc(Cl)c1OC1CCC1 (stereo unspecified) | 6.57
Cc1cccc(C(=O)NC2(C(=O)O)Cc3ccc(C#N)cc3C2)c1OC(C)C (stereo unspecified) | 4.69
CC(C)=Cc1c(C)cccc1C(=O)NC1(C(=O)O)Cc2cc(F)c(F)cc2C1 | 7.82
O=C(NC1(C(=O)O)Cc2ccccc2C1)c1cccc2cccnc12 | < 4.52
CCC/C=C/c1c(C)cccc1C(=O)NC1(C(=O)O)Cc2ccccc2C1 | 6.35
COc1ccc2c(c1)CC(NC(=O)c1cccc(C)c1OC(C)C)(C(=O)O)C2 (stereo unspecified) | 4.74
Cc1cccc(C(=O)NC2(C(=O)O)CCSCC2)c1OC(C)C | 4.62
CC(C)=Cc1c(C)cccc1C(=O)NC1(C(=O)O)Cc2ccc(Cl)cc2C1 (stereo unspecified) | 8.05
Cc1cccc(C(=O)NC2(C(=O)O)Cc3ccc(C(=O)O)cc3C2)c1OC1CCC1 (stereo unspecified) | < 4.52
CC(C)Oc1c(Cl)cc(Cl)cc1S(=O)(=O)NC1(C(=O)O)Cc2ccccc2C1 | 4.80
COc1ccc2c(c1)CC(NC(=O)c1cccc3c1CCCC3)(C(=O)O)C2 (stereo unspecified) | 5.02
O=C(NC1(C(=O)O)Cc2ccccc2C1)c1cccc2c1CCCC2 | 6.17

SMILES | pIC50
CC(C)=Cc1c(C)cccc1C(=O)NC1(C(=O)O)Cc2ccccc2C1 | 7.48
O=C(NC1(C(=O)O)Cc2ccccc2C1)c1cccc2cc[nH]c12 | < 4.52
O=C(NC1(C(=O)O)Cc2ccccc2C1)c1cnc2ccccc2n1 | < 4.52
O=C(NC1(C(=O)O)Cc2ccc(F)cc2C1)c1cccc2c1CCCC2 (stereo unspecified) | 6.53
Cc1cccc(C(=O)NC2(C(=O)O)Cc3ccc(F)cc3C2)c1OC1CCC1 (stereo unspecified) | 6.42
CC(C)=Cc1c(C(=O)NC2(C(=O)O)Cc3ccccc3C2)cccc1C(F)(F)F | 7.59
CC(C)=Cc1c(C)cccc1C(=O)NC1(C(=O)O)Cc2c(F)ccc(F)c2C1 | 7.42
CCCc1c(C)cccc1C(=O)NC1(C(=O)O)Cc2cc(F)c(F)cc2C1 | 7.35
Cc1cccc(C(=O)NC2(C(=O)O)Cc3ccccc3C2)c1CCC1CC1 | 7.01
O=C(NC1(C(=O)O)Cc2ccccc2C1)c1cccc2[nH]ccc12 | < 4.52
CCC/C=C\c1c(C)cccc1C(=O)NC1(C(=O)O)Cc2ccccc2C1 | 7.00
N#Cc1ccc2c(c1)CC(NC(=O)c1cccc3c1CCCC3)(C(=O)O)C2 (stereo unspecified) | 4.52
Cc1cccc(C(=O)NC2(C(=O)O)Cc3ccccc3C2)c1OC1CCC1 | 6.33
O=C(NC1(C(=O)O)Cc2ccccc2C1)c1cncc2ccccc12 | < 4.52
Cc1cccc(C(=O)N(C)C2(C(=O)O)Cc3ccccc3C2)c1OC(C)C | < 4.52
Cc1cccc(C(=O)NC2(C(=O)O)Cc3cc(F)c(F)cc3C2)c1CC(C)C | 7.77
Cc1sc(C)c2c1CC(NC(=O)c1cccc3c1CCCC3)(C(=O)O)C2 | 5.55
CCCc1c(C)cccc1C(=O)NC1(C(=O)O)Cc2ccccc2C1 | 7.64
O=C(NC1(C(=O)O)Cc2ccc(C(F)(F)F)cc2C1)c1cccc2c1CCCC2 (stereo unspecified) | 5.21
Cc1cccc(C(=O)N[C@]2(C(=O)O)Cc3ccc(F)cc3C2)c1CC(C)C (single isomer, unassigned) | 7.52

More lines, now with the values ahead:

pIC50 | SMILES
< 4.52 | Cc1cccc(C(=O)NC2(C(=O)O)Cc3ccc(C(=O)O)cc3C2)c1OC(C)C (stereo unspecified)
4.99 | Cc1cccc(C(=O)NC2(C(=O)O)Cc3ccc(C#N)cc3C2)c1OC1CCC1 (stereo unspecified)
< 4.52 | O=C(NC1(C(=O)O)Cc2ccccc2C1)c1cccc2c1OCCO2
7.25 | Cc1cccc(C(=O)NC2(C(=O)O)Cc3ccccc3C2)c1C1=CCCC1
5.53 | Cc1cccc(C(=O)NC2(C(=O)O)Cc3ccccc3C2)c1OCC1CC1
4.89 | C=CCOc1c(Cl)cc(Cl)cc1S(=O)(=O)NC1(C(=O)O)Cc2ccccc2C1
4.52 | O=C(NC1(C(=O)O)Cc2ccccc2C1)c1cc(F)cc2c1OCOC2
5.98 | Cc1cccc(C(=O)NC2(C(=O)O)Cc3ccccc3C2)c1C1=CCCCC1
6.63 | C/C=C/c1c(C)cccc1C(=O)NC1(C(=O)O)Cc2ccccc2C1
7.33 | CCCc1c(C)cccc1C(=O)NC1(C(=O)O)Cc2ccc(F)cc2C1 (stereo unspecified)
< 4.52 | Cc1cccc(C(=O)NC2(C(=O)O)Cc3ccc(C(N)=O)cc3C2)c1OC(C)C (stereo unspecified)
5.41 | CCCC(CC)c1c(C)cccc1C(=O)NC1(C(=O)O)Cc2ccccc2C1 (stereo unspecified)
6.27 | Cc1cccc(C(=O)NC2(C(=O)O)Cc3ccccc3C2)c1C1CCCC1
4.89 | O=C(NC1(C(=O)O)Cc2ccccc2C1)c1ccc(F)c2ccccc12
5.64 | CCCCCc1c(C)cccc1C(=O)NC1(C(=O)O)Cc2ccccc2C1
7.85 | Cc1cccc(C(=O)NC2(C(=O)O)Cc3ccccc3C2)c1CC(C)C
< 4.52 | O=C(O)C1(NS(=O)(=O)c2cccc3cccnc23)Cc2ccccc2C1
6.27 | Cc1cccc(C(=O)NC2(C(=O)O)Cc3ccc(F)cc3C2)c1OC(C)C (stereo unspecified)
5.97 | CCC(C)Oc1c(C)cccc1C(=O)NC1(C(=O)O)Cc2ccccc2C1 (stereo unspecified)
7.82 | Cc1cccc(C(=O)NC2(C(=O)O)Cc3ccc(F)cc3C2)c1CC(C)C (stereo unspecified)
4.82 | CC/C=C(/CC)c1c(C)cccc1C(=O)NC1(C(=O)O)Cc2ccccc2C1
< 4.52 | NC(=O)c1ccc2c(c1)CC(NC(=O)c1cccc3c1CCCC3)(C(=O)O)C2 (stereo unspecified)
5.44 | C=CCOc1c(Cl)cccc1C(=O)NC1(C(=O)O)Cc2ccccc2C1
7.89 | Cc1cccc(C(=O)NC2(C(=O)O)Cc3ccc(F)cc3C2)c1C1=CCCC1 (stereo unspecified)
4.76 | Cc1cccc(C(=O)NC2(C(=O)O)Cc3c(C)sc(C)c3C2)c1OC(C)C
5.09 | Cc1cccc(C(=O)NC2(C(=O)O)Cc3ccccc3C2)c1/C=C/C1CC1
7.96 | CC(C)=Cc1c(C)cccc1C(=O)NC1(C(=O)O)Cc2ccc(F)cc2C1 (stereo unspecified)
< 4.52 | O=C(NC1(C(=O)O)Cc2ccccc2C1)c1cccc2c1NCCC2
8.30 | CC(C)=Cc1c(C)cccc1C(=O)NC1(C(=O)O)Cc2ccc(F)c(F)c2C1 (stereo unspecified)
8.15 | Cc1cccc(C(=O)N[C@@]2(C(=O)O)Cc3ccc(F)cc3C2)c1CC(C)C (single isomer, unassigned)
